Consider 4 compounds from ChEMBL document CHEMBL4392881, “Noursamycins, Chlorinated Cyclohexapeptides Identified from Molecular Networking of Streptomyces noursei NTR-SR4” (2019).

Assay [1] concerns Bacillus subtilis. In words: Antibacterial activity against Bacillus subtilis JMRC:STI:10880 assessed as diameter of clear inhibition zone by agar diffusion test (reference value: 0 millimeter). Type of assay: functional. For orientation: In agar diffusion tests the substance spreads into inoculated agar from a disc or well.
The test system of assay [2] is Staphylococcus aureus. In words: Antibacterial activity against Staphylococcus aureus JMRC:ST:10760 assessed as diameter of clear inhibition zone by agar diffusion test (reference value: 0 millimeter). Format: functional.
The test system of assay [3] is Staphylococcus aureus. In words: Antibacterial activity against mulitdrug-resistant Staphylococcus aureus JMRC:ST:33793 assessed as diameter of clear inhibition zone by agar diffusion test (reference value: 0 millimeter). Format: functional.
Assay [4] relates to Staphylococcus aureus. In words: Antibacterial activity against mulitdrug-resistant Staphylococcus aureus JMRC:ST:33793 assessed as diameter of colonies in inhibition zone by agar diffusion test (reference value: 0 millimeter). Type of assay: functional.
Assay [5] has as its system Escherichia coli. In words: Antibacterial activity against Escherichia coli JMRC:ST:33699 assessed as diameter of clear inhibition zone by agar diffusion test (reference value: 0 millimeter). Type of assay: functional.
The subject of assay [6] is Pseudomonas aeruginosa. In words: Antibacterial activity against Pseudomonas aeruginosa JMRC:ST:33772 assessed as diameter of clear inhibition zone by agar diffusion test (reference value: 0 millimeter). Type of assay: functional.
Assay [7] has as its system Pseudomonas aeruginosa. In words: Antibacterial activity against Pseudomonas aeruginosa JMRC:ST:337721 assessed as diameter of clear inhibition zone by agar diffusion test (reference value: 0 millimeter). Format: functional.
Another assay concerns Enterococcus faecalis. In words: Antibacterial activity against vancomycin-resistant Enterococcus faecalis JMRC:ST:33700 assessed as diameter of promotion of inhibition zone by agar diffusion test (reference value: 0 millimeter). Type of assay: functional.
The test system of assay [8] is Mycolicibacterium vaccae. In words: Antibacterial activity against Mycobacterium vaccae JMRC:STI:10670 assessed as diameter of clear inhibition zone by agar diffusion test (reference value: 0 millimeter). Type of assay: functional.
The subject of assay [9] is Sporobolomyces salmonicolor. In words: Antifungal activity against Sporobolomyces salmonicolor JMRC:ST:35974 assessed as diameter of colonies in inhibition zone by agar diffusion test (reference value: 10 millimeter). Type of assay: functional.
Another assay has as its system Candida albicans. In words: Antifungal activity against Candida albicans JMRC:STI:25000 assessed as diameter of clear inhibition zone by agar diffusion test (reference value: 0 millimeter). Format: functional.
Assay [10] has as its system Penicillium chrysogenum. In words: Antifungal activity against Penicillium notatum JMRC:STI:50164 assessed as diameter of clear inhibition zone by agar diffusion test (reference value: 10 millimeter). Type of assay: functional.
Assay [11] has as its system Bacillus subtilis. In words: Antibacterial activity against Bacillus subtilis DSM10 measured after 20 hrs. Format: functional. Particulars: DSM10, 20 h.
The subject of assay [12] is Escherichia coli. In words: Antibacterial activity against Escherichia coli DSM 1116 measured after 20 hrs. Type of assay: functional. Particulars: DSM 1116, 20 h.
Assay [13] has as its system Escherichia coli. In words: Antibacterial activity against Escherichia coli BW25113 measured after 20 hrs. Type of assay: functional. Particulars: BW25113, 20 h.
A further assay has as its system Salmonella typhimurium. In words: Antibacterial activity against Salmonella typhimurium TA100 measured after 20 hrs. Type of assay: functional, Salmonella enterica subsp. enterica serovar Typhimurium. As to conditions: Salmonella enterica, TA100, 20 h.
A further assay deals with Micrococcus luteus. In words: Antibacterial activity against Micrococcus luteus DSM 1790 measured after 20 hrs. Type of assay: functional. Particulars: DSM 1790, 20 h.
A further assay relates to Mycolicibacterium phlei. In words: Antibacterial activity against Mycobacterium phlei DSM 750 measured after 20 hrs. Particulars: DSM 750, 20 h. Format: functional.
Assay [14] deals with Mycolicibacterium vaccae. In words: Antibacterial activity against Mycobacterium vaccae JMRC:STI:10670 assessed as diameter of colonies in inhibition zone by agar diffusion test (reference value: 0 millimeter). Type of assay: functional.
In assay [15] the test system is Penicillium chrysogenum. In words: Antifungal activity against Penicillium notatum JMRC:STI:50164 assessed as diameter of colonies in inhibition zone by agar diffusion test (reference value: 10 millimeter). Type of assay: functional.

The structures appear in SMILES notation. ≈ marks a conversion by molar mass, not a printed value. A value given as a limit tells only on which side of the number the result lay.

For `CC[C@@H](C)[C@@H]1NC(=O)[C@@H](CC(C)C)NC(=O)[C@@H](C(C)C)NC(=O)[C@H](Cc2c[nH]c3ccc(Cl)cc23)NC(=O)[C@@H]([C@H](O)C(N)=O)NC(=O)[C@H](CCCN)NC1=O`, the “diameter of the inhibition zone (DIZ)” value in the assay on Bacillus subtilis [1] worked out at 16 mm; in the assay with Staphylococcus aureus [2] it was 18 mm; in the assay on Staphylococcus aureus [3], 13 mm; in the assay with Staphylococcus aureus [4] it was 15 mm; with Escherichia coli [5] it was 0 mm; with Pseudomonas aeruginosa [6], 0 mm. In addition, the “diameter of the inhibition zone (DIZ)” value with Pseudomonas aeruginosa [7] turned out to be 10 mm; with Enterococcus faecalis, 16 mm; with Mycolicibacterium vaccae [8], 22 mm; in assay [9], 12 mm; with Candida albicans, 0 mm; in the assay with Penicillium chrysogenum [10], 0 mm. For the same compound, the minimal inhibitory concentration (MIC) in the assay on Bacillus subtilis [11] was 32 µg/mL (≈ 40.5 µM); against Escherichia coli [12], not below 64 µg/mL; with Escherichia coli [13], not below 64 µg/mL; in the assay with Salmonella typhimurium, 32 µg/mL (≈ 40.5 µM); in the assay on Micrococcus luteus, 32 µg/mL (≈ 40.5 µM); with Mycolicibacterium phlei, 32 µg/mL (≈ 40.5 µM).

As for `O=C(O)c1cn(C2CC2)c2cc(N3CCNCC3)c(F)cc2c1=O` [CIPROFLOXACIN], the results for the “diameter of the inhibition zone (DIZ)” value in the assay on Enterococcus faecalis and in the assay on Mycolicibacterium vaccae [14] were 17 mm and 21 mm, respectively. Also, the MIC in the assay on Bacillus subtilis [11], with Escherichia coli [12], in the assay with Escherichia coli [13], in the assay on Salmonella typhimurium, in the assay on Micrococcus luteus and with Mycolicibacterium phlei was less than 0.25 µg/mL throughout.

Regarding `C[C@@H]1[C@H](O)[C@@H](C)/C=C/C=C/C=C/C=C/C=C/C=C/C=C/[C@H](O[C@@H]2O[C@H](C)[C@@H](O)[C@H](N)[C@@H]2O)C[C@@H]2O[C@](O)(C[C@@H](O)C[C@@H](O)[C@H](O)CC[C@@H](O)C[C@@H](O)CC(=O)O[C@H]1C)C[C@H](O)[C@H]2C(=O)O` [AMPHOTERICIN B], the “diameter of the inhibition zone (DIZ)” value was found to be 18 mm in assay [9], 20 mm in the assay on Candida albicans and 19 mm in the assay on Penicillium chrysogenum [15].

For `CC[C@@H](C)[C@@H]1NC(=O)[C@@H](Cc2ccccc2)NC(=O)[C@@H](C(C)C)NC(=O)[C@H](Cc2c[nH]c3ccc(Cl)cc23)NC(=O)[C@@H]([C@H](O)C(N)=O)NC(=O)[C@H](CCCN)NC1=O`, the “diameter of the inhibition zone (DIZ)” value amounted to 18 mm in the assay with Bacillus subtilis [1]; 21 mm with Staphylococcus aureus [2]; 18 mm with Staphylococcus aureus [3]; 10 mm in the assay with Escherichia coli [5]; 0 mm in the assay on Pseudomonas aeruginosa [6]; 10 mm in the assay on Pseudomonas aeruginosa [7]. Moreover, the “diameter of the inhibition zone (DIZ)” value with Enterococcus faecalis was found to be 18 mm; in the assay with Mycolicibacterium vaccae [8] it was 21 mm; with Mycolicibacterium vaccae [14] it was 26 mm; in [9] it was 12 mm; in the assay with Candida albicans it was 0 mm; with Penicillium chrysogenum [10], 0 mm. Besides, the minimal inhibitory concentration (MIC) in the assay with Bacillus subtilis [11] is 4 µg/mL (≈ 4.85 µM); in the assay with Escherichia coli [12] it was not below 64 µg/mL; in the assay on Escherichia coli [13], not below 64 µg/mL; with Salmonella typhimurium, 16 µg/mL (≈ 19.4 µM); with Micrococcus luteus it was 8 µg/mL (≈ 9.7 µM); with Mycolicibacterium phlei it was 8 µg/mL (≈ 9.7 µM).

The term MIC denotes the lowest concentration that inhibits growth of the organism.
